Assay results as given in patent US6406859B1 (Synaptic Pharmaceutical Corporation, priority 1992, dated 2002).
Where two headings read alike, the source gives them in different places.

Assays:
5-HT1F receptor [1] = molecular target: T1, 5-HT1F receptor (Homo sapiens, UniProt P30939); experiment: [3H]5-HT displacement binding to clonal 5-HT1F cell membranes (transfected Ltk- cells); set-up: The entire coding region of clone hl16a was cloned into the eukaryotic expression vector pcEXV-3; expressed in transfected cells; conditions: for affinity for 5-HT1F receptor in words: displacement of [3H]5-HT specific binding
T1 sequence (P30939 1-366): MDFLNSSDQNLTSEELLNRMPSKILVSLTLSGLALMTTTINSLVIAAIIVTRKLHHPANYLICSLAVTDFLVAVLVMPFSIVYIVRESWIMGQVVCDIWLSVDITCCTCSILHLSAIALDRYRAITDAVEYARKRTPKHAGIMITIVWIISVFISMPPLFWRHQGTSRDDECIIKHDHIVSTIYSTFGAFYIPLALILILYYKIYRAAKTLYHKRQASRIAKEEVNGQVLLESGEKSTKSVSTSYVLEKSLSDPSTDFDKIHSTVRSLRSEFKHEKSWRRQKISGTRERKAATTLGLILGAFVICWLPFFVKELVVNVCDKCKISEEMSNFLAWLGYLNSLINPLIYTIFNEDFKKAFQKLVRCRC
Method: Stable cell lines were obtained by cotransfection with the plasmid pcEXV-3 (containing the 5-HT1F receptor gene) and the plasmid pGCcos3neo (containing the aminoglycoside transferase gene) into Ltk^− cells or NIH3T3 cells using calcium phosphate (reagents obtained from Specialty Media, Lavellette, N.J.). The cells were grown in a controlled environment (37° C. 5% CO2) an monolayers in Dulbecco's modified Eagle medium (Gibco, Grand Island, N.Y.) containing 25 mM glucose and supplemented with 10% bovine calf serum, 100 U/ml penicillin G and 100 μg/ml streptomycin sulfate.
(§1) Membrane Preparation: Membranes were prepared from transfected Ltk^− cells which were grown to 100% confluency. The cells were washed twice with phosphate-buffered saline, scraped from the culture dishes into 5 ml of ice-cold phosphate-buffered saline, and centrifuged at 200×g for 5 min at 4°. The pellet was resuspended in 2.5 ml of ice-cold Tris buffer (20 mM Tris-HCl, pH 7.4 at 23°, 5 mM EDTA) and homogenized by a Wheaton tissue grinder. The lysate was subsequently centrifuged at 200×g for 5 min at 4° to pellet large fragments which were discarded. The supernatant was collected and centrifuged at 40,000×g for 20 min at 4°. The pellet resulting from this centrifugation was washed once in ice-cold Tris wash buffer and finally resuspended in a final buffer containing 50 mM Tris-HCl and 0.5 mM EDTA, pH 7.4 at 23°. Membrane preparations were kept on ice and utilized within two hours for the radioligand binding assays.
The binding profile of drugs in competition experiments was accomplished using 10-12 concentrations of compound. Incubation times were 30 min for both saturation and displacement studies based upon initial investigations which determined equilibrium binding conditions. […] Binding was initiated by the addition of 50 μl membrane homogenates (10-20 μg). […] All experiments were performed in triplicate.

5-HT1E receptor = 5-HT1E receptor (Homo sapiens, UniProt P28566); conditions: U.S. Ser. No. 803,626; cited from earlier work
5-HT1F receptor [2] = molecular target: T1, 5-HT1F receptor
Method: (§2) The antagonist Kb was estimated by method of Furchgott (32): Kb=(Dose of antagonist)/((E50 in the presence of antagonist/control E50) −1).
(§3) Transfected NIH3T3 cells (estimated Bmax from one point competition studies=486 fmol/mg of protein) were incubated in DMEM, 5 mM theophylline, 10 mM Hepes (4-[2-Hydroxyethyl]-1-piperazineethanesulfonic acid), 10 μM pargyline, for 20 minutes at 37° C., CO2. Drug dose-effect curves were then conducted by adding 6 different final concentrations of drug, followed immediately by the addition of forskolin (10 μM). Subsequently, the cells were incubated for an additional 10 minutes at 37° C., 5% CO2. The media was aspirated and the reaction terminated by the addition of 100 mM HCl. The plates were stored at 4° C. for 15 minutes and centrifuged for 5 minutes (500×g at 4° C.) to pellet cellular debris. Aliquots of the supernatant fraction were then stored at −20° C. prior to assessment of cAMP formation by radioimmunoassay (cAMP Radioimmunoassay kit, Advanced Magnetics, Cambridge, Mass.).

5-HT1F receptor [3] = molecular target: T1, 5-HT1F receptor; experiment: cell-based
Method: as §2, §3

dog saphenous vein = conditions: cited from earlier work
human 5-HT1F receptor = experiment: Inhibition of [3H]5-HT specific binding by Gpp(NH)p (G-protein coupling); conditions: mean ± S.E.M., n=3
Method: as §1
The binding profile of drugs in competition experiments was accomplished using 10-12 concentrations of compound. Incubation times were 30 min for both saturation and displacement studies based upon initial investigations which determined equilibrium binding conditions. […] Binding was initiated by the addition of 50 μl membrane homogenates (10-20 μg). […] IC50 values were converted to K1 values using the Cheng-Prusoff equation (1973). All experiments were performed in triplicate.

5-HT1F receptor [4] = molecular target: T1, 5-HT1F receptor; experiment: Coupling to PI turnover; type: cell-based; set-up: The entire coding region of clone hl16a was cloned into the eukaryotic expression vector pcEXV-3; expressed in transfected cells; conditions: dose of 10 μM
[5] = read-out: Ki (nM) for the inhibition of [3H]5-HT specific binding, 4.5-5.5 nM [3H]5-HT, 10-12 drug concentrations, Cheng-Prusoff from IC50, mean ± S.E.M. of 2-4 determinations
[6] = read-out: Ki (nM) for the inhibition of [3H]5-HT specific binding

5-HT1E receptor, sequence (P28566 whole entry): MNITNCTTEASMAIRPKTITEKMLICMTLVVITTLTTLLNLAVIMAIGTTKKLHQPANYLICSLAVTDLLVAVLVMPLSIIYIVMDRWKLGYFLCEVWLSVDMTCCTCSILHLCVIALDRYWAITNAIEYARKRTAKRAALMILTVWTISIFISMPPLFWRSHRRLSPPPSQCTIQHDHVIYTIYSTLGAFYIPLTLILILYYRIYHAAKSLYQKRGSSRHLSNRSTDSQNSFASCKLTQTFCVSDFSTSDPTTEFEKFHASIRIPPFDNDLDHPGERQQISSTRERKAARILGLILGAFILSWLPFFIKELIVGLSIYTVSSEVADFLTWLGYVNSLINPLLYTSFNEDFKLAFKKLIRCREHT

COc1cc(N)c(Cl)cc1C(=O)NC1CN2CCC1CC2 (stereo not shown) [Zacopride]
Ki (5-HT1F receptor [1]): > 10000 nM
affinity for 5-HT1F receptor in words (5-HT1F receptor [1]): very poor affinity

COc1ccc2c3c([nH]c2c1)C(C)=NCC3 [Harmaline]
Ki (5-HT1F receptor [1]): > 10000 nM

FC(F)(F)c1cccc(N2CCNCC2)c1 [TFMPP]
Ki (5-HT1F receptor [1]; [5]): 1000 nM

CCCN(CCC)CCc1c[nH]c2ccc(C(N)=O)cc12 [DP-5-CT]
Ki (5-HT1F receptor [1]; [6]): 1610 nM

NCCc1c[nH]c2ccc(C(N)=O)cc12 [5-CT, 5-carboxyamidotryptamine]
affinity for 5-HT1E receptor in words (5-HT1E receptor): low affinity
affinity for 5-HT1F receptor in words (5-HT1F receptor [1]): low affinity
affinity for 5-HT1F receptor in words (5-HT1F receptor [1]; listed as 5-carboxyamidotryptamine): significantly decreases the affinity
Ki (5-HT1F receptor [1]; [6]): 717 ± 71 nM

CSc1ccc2c(c1)C(N1CCN(C)CC1)Cc1ccccc1S2 (stereo not shown) [Methiothepin]
blockade of functional 5-HT response (5-HT1F receptor [2]; 5-HT 1 μM, antagonist 10 μM): completely blocked
nature of antagonism (5-HT1F receptor [2]; FIG. 3, 5-HT curves with and without antagonist): surmountable
direct effect of compound on cAMP response (5-HT1F receptor [2]; compound alone): No direct effect
Kd (5-HT1F receptor [2]; read-out: apparent KD from dose shift of 5-HT concentration-effect curve, antagonist, method of Furchgott (FIG. 3)): 438 ± 14 nM
Ki (5-HT1F receptor [1]; [5]): 652 ± 41 nM

c1ccc2nc(N3CCNCC3)ccc2c1 [Quipanzine]
Ki (5-HT1F receptor [1]; [6]): 4670 nM

CN1CCc2cc(Cl)c(O)cc2[C@@H](c2ccccc2)C1 [SCH 23390]
Ki (5-HT1F receptor [1]): 1490 nM

CCCN(CCC)C1CCc2cccc(O)c2C1 (stereo not shown) [8-OH-DPAT]
affinity for 5-HT1F receptor in words (5-HT1F receptor [1]): very poor affinity
Ki (5-HT1F receptor [1]; [6]): 1770 nM

COC(=O)[C@H]1[C@H]2C[C@H]3c4[nH]c5ccccc5c4CCN3C[C@H]2CC[C@@H]1O [rauwolscine]
affinity for 5-HT1F receptor in words (5-HT1F receptor [1]): fair affinity

CN1C[C@H](CO)C=C2c3cccc4[nH]cc(c34)C[C@H]21 [lysergol]
EC50 (5-HT1F receptor [3]): 8.8 ± 4.3 nM

CN1C[C@H](C(=O)N[C@]2(C)O[C@@]3(O)[C@@H]4CCCN4C(=O)[C@H](Cc4ccccc4)N3C2=O)C[C@@H]2c3cccc4[nH]cc(c34)C[C@H]21 [Dihydroergotamine]
Ki (5-HT1F receptor [1]): 276 ± 49 nM

CN1C[C@H](CNC(=O)OCc2ccccc2)C[C@@H]2c3cccc4c3c(cn4C)C[C@H]21 [Metergoline]
block of the effects of sumatriptan (dog saphenous vein): does not block the effects of sumatriptan
Ki (5-HT1F receptor [1]; [5]): 341 ± 71 nM

C[C@@H](CO)NC(=O)[C@@H]1C=C2c3cccc4[nH]cc(c34)C[C@H]2N(C)C1 [Ergonovine]
Ki (5-HT1F receptor [1]): 31 ± 1.5 nM

O=C(c1ccc(F)cc1)C1CCN(CCn2c(=O)[nH]c3ccccc3c2=O)CC1 [Ketanserin]
Ki (5-HT1F receptor [1]): > 10000 nM
affinity for 5-HT1F receptor in words (5-HT1F receptor [1]): very poor affinity

COc1ccc2[nH]cc(CCN(C)C)c2c1 [5-Methoxy-N,N-DMT, 5-methoxy-N,N-dimethyltryptamine]
Ki (5-HT1F receptor [1]): 37.5 ± 1.5 nM
affinity for 5-HT1F receptor in words (5-HT1F receptor [1]): affinity much higher than the other 5-substituted tryptamine derivatives

COC(=O)[C@@H]1[C@H]2C[C@H]3c4[nH]c5ccccc5c4CCN3C[C@@H]2CC[C@@H]1O [Yohimbine]
affinity for 5-HT1F receptor in words (5-HT1F receptor [1]): fair affinity
Ki (5-HT1F receptor [1]; [6]): 92 ± 11 nM

Clc1cccc(N2CCNCC2)c1 [mCPP]
Ki (5-HT1F receptor [1]; [6]): 2020 nM

Cc1[nH]c2ccc(O)cc2c1CCN [2-Methyl-5-HT]
Ki (5-HT1F receptor [1]; [5]): 413 ± 5.6 nM

COc1ccc2[nH]cc(CCN)c2c1 [5-MT, 5-methoxytryptamine]
Ki (5-HT1F receptor [1]): 1120 nM
affinity for 5-HT1F receptor in words (5-HT1F receptor [1]): significantly decreases the affinity

CC[C@@H](CO)NC(=O)[C@@H]1C=C2c3cccc4[nH]cc(c34)C[C@H]2N(C)C1 [Methylergonovine]
affinity for 5-HT1F receptor in words (5-HT1F receptor [1]): high affinity
Ki (5-HT1F receptor [1]; [5]): 31 ± 11 nM

COc1cc(CC(C)N)c(OC)cc1I (stereo not shown) [DOI]
affinity for 5-HT1F receptor in words (5-HT1F receptor [1]): very poor affinity
Ki (5-HT1F receptor [1]; [6]): 1740 nM

CC[C@@H](CO)NC(=O)[C@@H]1C=C2c3cccc4c3c(cn4C)C[C@H]2N(C)C1 [Methysergide]
affinity for 5-HT1F receptor in words (5-HT1F receptor [1]): high affinity
Ki (5-HT1F receptor [1]; [6]): 34 ± 4.9 nM

NCCc1c[nH]c2ccc(OCc3ccccc3)cc12 [5-Benzoxytryptamine]
Ki (5-HT1F receptor [1]): 1490 nM

CN1C[C@H](C(=O)N[C@]2(C)O[C@@]3(O)[C@@H]4CCCN4C(=O)[C@H](Cc4ccccc4)N3C2=O)C=C2c3cccc4[nH]cc(c34)C[C@H]21 [Ergotamine]
Ki (5-HT1F receptor [1]; [5]): 171 ± 28 nM

Nc1nc2c(ncn2[C@@H]2O[C@H](COP(=O)(O)OP(=O)(O)NP(=O)(O)O)[C@@H](O)[C@H]2O)c(=O)[nH]1 [Gpp(NH)p]
Imax of inhibition of [3H]5-HT specific binding (human 5-HT1F receptor): 55.6±3.2%

NCCc1c[nH]c2ccc(F)cc12 [5-Fluorotryptamine]
Ki (5-HT1F receptor [1]): 1810 nM

COc1ccc2[nH]cc(CCNC(C)=O)c2c1 [Melatonin]
Ki (5-HT1F receptor [1]): > 10000 nM

CC(C)NCC(O)COc1cccc2ccccc12 (stereo not shown) [Propanolol]
Ki (5-HT1F receptor [1]): 8710 nM

CN1C[C@@H](NS(=O)(=O)N(C)C)C[C@@H]2c3cccc4c3c(cn4C)C[C@H]21 [Mesulergine]
Ki (5-HT1F receptor [1]): > 10000 nM

NCCc1c[nH]c2ccc(O)cc12 [5-HT, 5-hydroxytryptamine]
maximum inhibition of cAMP production (5-HT1F receptor [2]; forskolin 10 μM): 67±5.4%
affinity for 5-HT1F receptor in words (5-HT1F receptor [1]): highest affinity
coupling to PI turnover (5-HT1F receptor [4]): no evidence for coupling of this receptor to PI turnover was detected

c1ccc2c(N3CCNCC3)cccc2c1 [1-Napthylpiperazine]
EC50 (5-HT1F receptor [2]; read-out: EC50 for decrease in forskolin-stimulated cAMP production): 4.5 ± 0.2 nM
Ki (5-HT1F receptor [1]; unit inferred, read-out: K1): 54 nM

CC(N)Cc1c[nH]c2ccc(O)cc12 (stereo not drawn) [α-Methyl-5-HT]
Ki (5-HT1F receptor [1]): 184 ± 35 nM

Cc1nc2sccn2c(=O)c1CCN1CCC(=C(c2ccc(F)cc2)c2ccc(F)cc2)CC1 [Ritanserin]
Ki (5-HT1F receptor [1]): 3520 nM

O=C(CCCN1CCC2(CC1)C(=O)NCN2c1ccccc1)c1ccc(F)cc1 [Spiperone]
Ki (5-HT1F receptor [1]): > 10000 nM
affinity for 5-HT1F receptor in words (5-HT1F receptor [1]): very poor affinity

COc1ccccc1N1CCN(CCCCN2C(=O)c3ccccc3C2=O)CC1 [NAN 190]
Ki (5-HT1F receptor [1]; [5]): 203 ± 13 nM

NCCc1c[nH]c2ccccc12 [Tryptamine]
affinity for 5-HT1F receptor in words (5-HT1F receptor [1]): significantly decreases the affinity
Ki (5-HT1F receptor [1]; [6]): 2410 nM

CC(C)NCC(O)COc1cccc2[nH]ccc12 (stereo not shown) [Pindolol]
Ki (5-HT1F receptor [1]): > 10000 nM
affinity for 5-HT1F receptor in words (5-HT1F receptor [1]): very poor affinity
